Assay results reported in US20150087673A1, “METHODS FOR USING AND BIOMARKERS FOR AMPK-ACTIVATING COMPOUNDS” (RIGEL PHARMACEUTICALS, INC., priority 2013, published 2015).

Tested on: AMPK
Assay: AMPK activation assay (enzyme-linked immunosorbent assay)
Assay type: cell-based
Description: Compounds were assayed for their ability to activate AMPK using an enzyme-linked immunosorbent assay. Reagents and procedures for measuring AMPK activation are well known and kits for AMPK activation assays are commercially available.

| Compound | EC50 [nM] |
| --- | --- |
| O=C(Nc1ccc(-c2ccsc2)cc1)c1ccc(C(=O)N2CCN(Cc3ccc(F)cc3)CC2)cn1 [Compound 62, 5-(4-(4-fluorobenzyl)piperazine-1-carbonyl)-N-(4-(thiophen-3-yl)phenyl)picolinamide] | < 500 |
| N#Cc1ccc(Oc2ccc(NC(=O)c3ccc(C(=O)N4CCN(Cc5ccc(F)cc5)CC4)cn3)cn2)cc1 [Compound 63, 5-(4-(4-fluorobenzyl)piperazine-1-carbonyl)-(6-(4-cyanophenoxy)pyridin-3-yl)picolinamide] | < 500 |
| N#Cc1cccc(Oc2ccc(NC(=O)c3ccc(C(=O)N4CCN(Cc5ccc(F)cc5)CC4)cn3)cn2)c1 [Compound 64, 5-(4-(4-fluorobenzyl)piperazine-1-carbonyl)-(6-(3-cyanophenoxy)pyridin-3-yl)picolinamide] | < 500 |
| O=C(Nc1ccc(Oc2ccc(F)cc2)nc1)c1ccc(C(=O)N2CCN(Cc3ccc(F)cc3)CC2)cn1 [Compound 65, 5-(4-(4-fluorobenzyl)piperazine-1-carbonyl)-N-(6-(4-fluorophenoxy)pyridin-3-yl)picolinamide] | < 500 |
| COc1cc(C#N)ccc1OC1CCN(C(=O)c2ccc(C(=O)NC3CCN(Cc4ccc(C#N)cc4)CC3)nc2)CC1 [Compound 66, 5-(4-(4-cyano-2-methoxyphenoxy)piperidine-1-carbonyl)-N-(1-(4-cyanobenzyl)piperidin-4-yl)picolinamide] | < 500 |
| O=C(Nc1ccc(Oc2ccc(F)cc2)nc1)c1ccc(C(=O)N2CCC(F)(C(=O)c3ccc(F)cc3)CC2)cn1 [Compound 67, 5-(4-(4-fluoro-4-fluorobenzoyl)piperidine-1-carbonyl)-N-(6-(4-fluorophenoxy)pyridin-3-yl)picolinamide] | < 500 |
| N#Cc1ccc(CN2CCC(NC(=O)c3ccc(C(=O)N4CCC(F)(C(=O)c5ccc(F)cc5)CC4)cn3)CC2)cc1 [Compound 68, N-(1-(4-cyanobenzyl)piperidin-4-yl)-5-(4-(4-fluoro-4-fluorobenzoyl)piperidine-1-carbonyl)picolinamide] | < 500 |
| COc1ccc(OC2CCN(C(=O)c3ccc(C(=O)Nc4ccc(Oc5ccc(F)cc5)nc4)nc3)CC2)cc1 [Compound 70, 5-(4-(4-methoxyphenoxy)piperidine-1-carbonyl)-N-(6-(4-fluorophenoxy)pyridin-3-yl)picolinamide] | < 500 |
| N#Cc1ccc(CN2CCC(NC(=O)c3ccc(C(=O)N4CCN(C(=O)c5ccc(C(=O)NC6CCN(Cc7ccc(C#N)cc7)CC6)nc5)CC4)cn3)CC2)cc1 [Compound 75, 5,5′-(piperazine-1,4-diylbis(oxomethylene))bis(N-(1-(4-cyanobenzyl)piperidin-4-yl)picolinamide)] | 1000 to 5000 |
| COc1ccc(S(=O)(=O)N2CCN(C(=O)c3ccc(C(=O)NC4CCN(Cc5ccc(C#N)cc5)CC4)nc3)CC2)cc1 [Compound 79, N-(1-(4-cyanobenzyl)piperidin-4-yl)-5-(4-(4-methoxyphenylsulfonyl)piperazine-1-carbonyl)picolinamide] | 500 to 1000 |
| N#Cc1ccc(CN2CCC(NC(=O)c3ccc(C(=O)N4CCN(C5CCOCC5)CC4)cn3)CC2)cc1 [Compound 83, N-(1-(4-cyanobenzyl)piperidin-4-yl)-5-(4-(tetrahydro-2H-pyran-4-yl)piperazine-1-carbonyl)picolinamide] | > 10000 |
| N#Cc1ccc(CN2CCC(NC(=O)c3cccc(C(=O)NC4CCN(Cc5ccc(C#N)cc5)CC4)n3)CC2)cc1 [Compound 86, N2,N6-bis(1-(4-cyanobenzyl)piperidin-4-yl)pyridine-2,6-dicarboxamide] | 1000 to 5000 |
| O=C(NC1CCN(Cc2ccc(F)cc2)CC1)c1cccc(C(=O)NC2CCN(Cc3ccc(F)cc3)CC2)n1 [Compound 87, N2,N6-bis(1-(4-fluorobenzyl)piperidin-4-yl)pyridine-2,6-dicarboxamide] | 1000 to 5000 |
| N#Cc1ccc(CN2CCC(NC(=O)c3ccc(C(=O)N4CCN(C(=O)C5CCCCC5)CC4)cn3)CC2)cc1 [Compound 89, N-(1-(4-cyanobenzyl)piperidin-4-yl)-5-(4-(cyclohexanecarbonyl)piperazine-1-carbonyl)picolinamide] | 1000 to 5000 |
| CC(C)N1CCN(C(=O)c2ccc(C(=O)N3CCN(CCc4ccccc4)CC3)nc2)CC1 [Compound 91, (4-isopropylpiperazin-1-yl)(6-(4-phenethylpiperazine-1-carbonyl)pyridin-3-yl)methanone] | > 10000 |
| O=C(c1cccc(C(=O)N2CCN(Cc3ccc(F)cc3)CC2)n1)N1CCN(CCc2ccccc2)CC1 [Compound 93, (4-(4-fluorobenzyl)piperazin-1-yl)(6-(4-phenethylpiperazine-1-carbonyl)pyridin-2-yl)methanone] | > 10000 |
| O=C(c1cccc(C(=O)N2CCN(c3ccccc3)CC2)n1)N1CCN(Cc2ccc(F)cc2)CC1 [Compound 94, (4-(4-fluorobenzyl)piperazin-1-yl)(6-(4-phenylpiperazine-1-carbonyl)pyridin-2-yl)methanone] | > 10000 |
| N#Cc1ccc(CC2CCC(NC(=O)c3cccc(C(=O)N4CCN(Cc5ccc(F)cc5)CC4)n3)CC2)cc1 (stereo not shown) [Compound 99, N-(4-(4-cyanobenzyl)cyclohexyl)-6-(4-(4-fluorobenzyl)piperazine-1-carbonyl)picolinamide] | 5000 to 10000 |

Further lines, results first:

| EC50 [nM] | Compound |
| --- | --- |
| < 500 | O=C(NC1CCN(Cc2ccccc2)CC1)c1ccc(C(=O)N2CCN(Cc3ccccc3)CC2)cn1 [Compound 72, 5-(4-benzylpiperazine-1-carbonyl)-N-(1-benzylpiperidin-4-yl)picolinamide] |
| 5000 to 10000 | O=C(c1ccc(C(=O)N2CCN(Cc3ccccc3)CC2)nc1)N1CCN(Cc2ccccc2)CC1 [Compound 73, pyridine-2,5-diylbis((4-benzylpiperazin-1-yl)methanone)] |
| < 500 | O=C(NC1CCN(Cc2ccccc2)CC1)c1ccc(C(=O)N2CCN(Cc3ccccc3)CC2)nc1 [Compound 74, 6-(4-benzylpiperazine-1-carbonyl)-N-(1-benzylpiperidin-4-yl)nicotinamide] |
| < 500 | N#Cc1ccc(CN2CCC(NC(=O)c3ccc(C(=O)N4CCN(C(=O)c5ccc(F)cc5)CC4)cn3)CC2)cc1 [Compound 76, N-(1-(4-cyanobenzyl)piperidin-4-yl)-5-(4-(4-fluorobenzoyl)piperazine-1-carbonyl)picolinamide] |
| < 500 | COc1ccc(C(=O)N2CCN(C(=O)c3ccc(C(=O)NC4CCN(Cc5ccc(C#N)cc5)CC4)nc3)CC2)cc1 [Compound 77, N-(1-(4-cyanobenzyl)piperidin-4-yl)-5-(4-(4-methoxybenzoyl)piperazine-1-carbonyl)picolinamide] |
| < 500 | N#Cc1ccc(CN2CCC(NC(=O)c3ccc(C(=O)N4CCN(S(=O)(=O)c5ccc(F)cc5)CC4)cn3)CC2)cc1 [Compound 78, N-(1-(4-cyanobenzyl)piperidin-4-yl)-5-(4-(4-fluorophenylsulfonyl)piperazine-1-carbonyl)picolinamide] |
| 1000 to 5000 | N#Cc1ccc(CN2CCC(NC(=O)c3ccc(C(=O)N4CCN(C(=O)c5ccccc5)CC4)cn3)CC2)cc1 [Compound 80, 5-(4-benzoylpiperazine-1-carbonyl)-N-(1-(4-cyanobenzyl)piperidin-4-yl)picolinamide] |
| 500 to 1000 | CC(C)(C)C(=O)N1CCN(C(=O)c2ccc(C(=O)NC3CCN(Cc4ccc(C#N)cc4)CC3)nc2)CC1 [Compound 81, N-(1-(4-cyanobenzyl)piperidin-4-yl)-5-(4-pivaloylpiperazine-1-carbonyl)picolinamide] |
| 500 to 1000 | N#Cc1ccc(CN2CCC(NC(=O)c3ccc(C(=O)N4CCN(S(=O)(=O)c5ccccc5)CC4)cn3)CC2)cc1 [Compound 82, N-(1-(4-cyanobenzyl)piperidin-4-yl)-5-(4-(phenylsulfonyl)piperazine-1-carbonyl)picolinamide] |
| 1000 to 5000 | CC(C)N1CCN(C(=O)c2ccc(C(=O)NC3CCN(Cc4ccc(C#N)cc4)CC3)nc2)CC1 [Compound 84, N-(1-(4-cyanobenzyl)piperidin-4-yl)-5-(4-isopropylpiperazine-1-carbonyl)picolinamide] |
| 1000 to 5000 | Cc1cc(CN2CCN(C(=O)c3ccc(C(=O)NC4CCN(Cc5ccccc5)CC4)nc3)CC2)no1 [Compound 85, N-(1-benzylpiperidin-4-yl)-5-(4-((5-methylisoxazol-3-yl)methyl)piperazine-1-carbonyl)picolinamide] |
| 1000 to 5000 | O=C(c1ccc(C(=O)N2CCN(CCc3ccccc3)CC2)nc1)N1CCN(Cc2ccc(F)cc2)CC1 [Compound 88, (4-(4-fluorobenzyl)piperazin-1-yl)(6-(4-phenethylpiperazine-1-carbonyl)pyridin-3-yl)methanone] |
| > 10000 | O=C(c1ccc(C(=O)N2CCN(CCc3ccccc3)CC2)nc1)N1CCN(c2ccccc2)CC1 [Compound 90, (4-phenethylpiperazin-1-yl)(5-(4-phenylpiperazine-1-carbonyl)pyridin-2-yl)methanone] |
| > 10000 | O=C(c1ccc(C(=O)N2CCN(CCc3ccccc3)CC2)nc1)N1CCN(CCc2ccccc2)CC1 [Compound 92, pyridine-2,5-diylbis((4-phenethylpiperazin-1-yl)methanone)] |
| < 500 | N#Cc1ccc(CN2CCC(NC(=O)c3ccc(C(=O)N4CCN(CC5CCCCC5)CC4)cn3)CC2)cc1 [Compound 95, N-(1-(4-cyanobenzyl)piperidin-4-yl)-5-(4-(cyclohexylmethyl)piperazine-1-carbonyl)picolinamide] |
| > 10000 | O=C(NC1CCN(Cc2ccccc2)CC1)c1ccc(C(=O)N2CCN(c3ccncc3)CC2)cn1 [Compound 96, N-(1-benzylpiperidin-4-yl)-5-(4-(pyridin-4-yl)piperazine-1-carbonyl)picolinamide] |
| 1000 to 5000 | O=C(NC1CCN(Cc2ccccc2)CC1)c1ccc(C(=O)N2CCN(c3ccccc3)CC2)cn1 [Compound 97, N-(1-benzylpiperidin-4-yl)-5-(4-phenylpiperazine-1-carbonyl)picolinamide] |
| 1000 to 5000 | CCOC(=O)C(c1ccccc1)N1CCC(NC(=O)c2ccc(C(=O)N3CCN(Cc4ccc(F)cc4)CC3)cn2)CC1 (stereo not shown) [Compound 98, ethyl 2-(4-(5-(4-(4-fluorobenzyl)piperazine-1-carbonyl)picolinamido)piperidin-1-yl)-2-phenylacetate] |
| < 500 | N#Cc1ccc(CN2CC[C@@H](NC(=O)c3ccc(C(=O)N4CCN(Cc5ccc(F)cc5)CC4)cn3)[C@@H](F)C2)cc1 [Compound 100] |
